Test results as given in patent US20210355103A1, “PARG INHIBITORS AND METHOD OF USE THEREOF” (City of Hope, priority 2018, published 2021).

Molecular target: T1, PARG (Homo sapiens, UniProt Q86W56)
T1 construct: made in house; host or cells: Sf9 insect cells
Assay: PAR digestion assay (dot blotting) for PARG inhibition
Format: biochemical
Conditions: 0.25 nM PARG incubated with 10 μM PAR for 20 min at room temperature; dot blotting with anti-PAR antibody
Procedure: Compounds (FIG. 4) were synthesized to examine the efficacy of PARG inhibition by dot blotting assay (Example 5). 0.25 nM PARG was incubated with 10 μM PAR for 20 min at room temperature with or without inhibitors. PAR-digestion results were analyzed using dot blotting with anti-PAR antibody.
The array includes compounds in FIG. 4 (PG002 (“002”), PG006 (“006”), PG008 (“008”), PG010 (“010”), and PG021(“021”)), PC (positive control, PAR only), NC (negative control, no inhibitor), and COH34 (“34”, positive control for PARG inhibition). In FIG. 5A, 0.3X means 3-fold dilution.
Recombinant PARG protein from Sf9 cells were incubated with PAR purified from FhCh-treated PARG-knock down HCT116 cells (10 μM, calculated as the ADP-ribose unit) and DMSO (Negative control, NC) or small molecules for 20 minutes at room temperature. Positive control (PC) only contains PAR in PBS. Samples (1 μl) were spotted onto a nitrocellulose membrane. Then, the membrane was backed for 30 minutes at 60° C. and blocked with TBST buffer (0.15 M NaCl, 0.01 M Tris-HCl at pH 7.4, 0.1% Tween 20) supplemented with 5% milk for 30 minutes at room temperature. After washing with TBST, the membrane was incubated with monoclonal PAR antibody (Trevigen, Inc.) overnight at 4° C. Following standard Western blotting method, the signals were visualized by chemiluminescent detection (FIG. 5B).

T1 sequence (Q86W56 whole entry): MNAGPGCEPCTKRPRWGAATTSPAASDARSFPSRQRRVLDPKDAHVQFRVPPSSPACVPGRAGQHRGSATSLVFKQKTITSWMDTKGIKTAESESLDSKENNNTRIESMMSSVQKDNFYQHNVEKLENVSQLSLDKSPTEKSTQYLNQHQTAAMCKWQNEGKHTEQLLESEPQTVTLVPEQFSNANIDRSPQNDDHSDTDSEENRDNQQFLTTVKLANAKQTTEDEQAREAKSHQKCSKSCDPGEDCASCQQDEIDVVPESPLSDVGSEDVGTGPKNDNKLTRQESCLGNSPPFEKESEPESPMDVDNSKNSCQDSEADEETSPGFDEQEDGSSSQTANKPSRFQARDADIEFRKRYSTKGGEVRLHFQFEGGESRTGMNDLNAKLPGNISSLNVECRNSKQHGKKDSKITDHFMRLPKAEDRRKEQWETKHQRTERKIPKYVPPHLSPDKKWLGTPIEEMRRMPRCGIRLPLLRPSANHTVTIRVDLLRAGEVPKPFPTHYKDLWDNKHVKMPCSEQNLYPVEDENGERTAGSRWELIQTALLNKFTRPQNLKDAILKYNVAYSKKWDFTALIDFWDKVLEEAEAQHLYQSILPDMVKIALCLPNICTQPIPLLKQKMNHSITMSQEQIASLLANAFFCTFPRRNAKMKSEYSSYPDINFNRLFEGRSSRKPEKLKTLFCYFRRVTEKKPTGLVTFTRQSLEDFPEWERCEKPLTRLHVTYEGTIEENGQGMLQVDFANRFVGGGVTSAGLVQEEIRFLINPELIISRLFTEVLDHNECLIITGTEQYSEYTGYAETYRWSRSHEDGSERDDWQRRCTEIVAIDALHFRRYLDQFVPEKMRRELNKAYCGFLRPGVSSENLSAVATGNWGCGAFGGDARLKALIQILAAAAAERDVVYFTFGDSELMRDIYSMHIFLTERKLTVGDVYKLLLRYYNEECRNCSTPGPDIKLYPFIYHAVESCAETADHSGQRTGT

inhibitory activity for PARG | Compound
good inhibitory activity | O=C(N/N=C/c1nccc2ccccc12)c1ccc(Cl)cc1 [PG006, 4-chloro-N′-[(1E)-(isoquinolin-1-yl)methylidene]benzohydrazide]
good inhibitory activity | O=C(N/N=C/c1c(O)ccc2ccccc12)c1ccc(Cl)cn1 [PG002, 5-chloro-N′-[(1E)-(2-hydroxynaphthalen-1-yl)methylidene]pyridine-2-carbohydrazide]
good inhibitory activity | O=S(=O)(N/N=C/c1c(O)ccc2ccccc12)c1ccc(Cl)cn1 [PG021, 5-chloro-N′-[(1E)-(2-hydroxynaphthalen-1-yl)methylidene]pyridine-2-sulfonohydrazide]
good inhibitory activity | O=C(N/N=C/c1c(O)cnc2ccccc12)c1ccc(Cl)cc1 [PG008, 4-chloro-N-[(1E)-(3-hydroxyquinolin-4-yl)methylidene]benzohydrazide]
good inhibitory activity | O=C(N/N=C/c1c(O)ccc2cccnc12)c1ccc(Cl)cc1 [PG010, 4-chloro-N′-[(1E)-(7-hydroxyquinolin-8-yl)methylidene]benzohydrazide]

Test system: HCC1937 (BRCA1-mutant breast cancer cells)
Assay: Colony formation (cell viability) assay in HCC1937 cells
Format: cell-based
Conditions: HCC1937, 1 μM PARG inhibitor, 14-day culture, colonies >50 cells counted
Procedure: To examine the efficacy of PG compounds in DNA repair-defective cancer cells, colony formation assays were performed using HCC1937 (BRCA1-mutant breast cancer cells) with or without 1 μM PARG inhibitors (PG002, PG006, PG008, and PG010). COH34 was used as a positive control. HCC1937 (˜1000 cells) were seeded into six-well plates and then treated by various doses of PARG inhibitors. After a 14-day culture, the viable cells were fixed by methanol and stained with crystal violet. The number of colonies (>50 cells for each colony) was calculated. The results were summarized in the histograms (FIG. 7).

Compound | death of the tumor cells (colony formation)
O=C(N/N=C/c1nccc2ccccc12)c1ccc(Cl)cc1 [PG006, 4-chloro-N′-[(1E)-(isoquinolin-1-yl)methylidene]benzohydrazide] | increased death of the tumor cells
O=C(N/N=C/c1c(O)ccc2ccccc12)c1ccc(Cl)cn1 [PG002, 5-chloro-N′-[(1E)-(2-hydroxynaphthalen-1-yl)methylidene]pyridine-2-carbohydrazide] | increased death of the tumor cells
O=C(N/N=C/c1c(O)cnc2ccccc12)c1ccc(Cl)cc1 [PG008, 4-chloro-N-[(1E)-(3-hydroxyquinolin-4-yl)methylidene]benzohydrazide] | increased death of the tumor cells
O=C(N/N=C/c1c(O)ccc2cccnc12)c1ccc(Cl)cc1 [PG010, 4-chloro-N′-[(1E)-(7-hydroxyquinolin-8-yl)methylidene]benzohydrazide] | increased death of the tumor cells
